Measurements as given in the NIST ThermoML archive (doi:10.1021/je201334p).
Numbers after ± are expanded uncertainties.

Legend:
[1] = molar heat capacity at constant pressure; conditions: 101.33 kPa, Liquid, Small sample (50 mg) DSC
[2] = refractive index (Na D-line) (dimensionless); conditions: Liquid, Standard Abbe refractometry
[3] = 101 kPa, Liquid; for speed of sound: Sing-around technique in a fixed-path interferometer; for mass density: Vibrating tube method
[4] = xn = mol fraction of the nth substance listed; conditions: 308.15 K; 101 kPa; Liquid; Sing-around technique in a fixed-path interferometer; x1 = 1
[5] = refractive index (Na D-line) (dimensionless); xn = mol fraction of the nth substance listed; conditions: 101 kPa, Liquid, Standard Abbe refractometry, x1 = 1

| SMILES | molar heat capacity at constant pressure ([1]; 288.15 K) | molar heat capacity at constant pressure ([1]; 298.15 K) | molar heat capacity at constant pressure ([1]; 308.15 K) | refractive index ([2]; 288.15 K, 101 kPa) | refractive index ([2]; 288.15 K, 101.33 kPa) | refractive index ([2]; 298.15 K, 101 kPa) | refractive index ([2]; 298.15 K, 101.33 kPa) | refractive index ([2]; 308.15 K, 101 kPa) | refractive index ([2]; 308.15 K, 101.33 kPa) | speed of sound ([3]; 288.15 K) | mass density ([3]; 288.15 K) | speed of sound ([3]; 298.15 K) | mass density ([3]; 298.15 K) | speed of sound ([3]; 308.15 K) | mass density ([3]; 308.15 K) | speed of sound [4] | refractive index ([5]; 288.15 K) | refractive index ([5]; 298.15 K) | refractive index ([5]; 308.15 K) |
| --- | --- | --- | --- | --- | --- | --- | --- | --- | --- | --- | --- | --- | --- | --- | --- | --- | --- | --- | --- |
| CCOS(=O)(=O)[O-].CCc1cccc[n+]1CC [1,2-diethylpyridinium ethylsulfate] | 399 ± 8 J/K/mol | 412 ± 8 J/K/mol | 420 ± 8 J/K/mol | 1.51631 ± 0.00053 | 1.51631 ± 0.00053 | 1.5135 ± 0.00053 | 1.5135 ± 0.00053 | 1.51067 ± 0.00053 | 1.51067 ± 0.00053 | 1774.5 ± 1.5 m/s | 1225.93 ± 0.54 kg/m3 | 1745.2 ± 1.5 m/s | 1219.26 ± 0.53 kg/m3 | 1718.4 ± 1.5 m/s | 1212.65 ± 0.52 kg/m3 | – | – | – | – |
| CCCC[N+]1(C)CCCC1.N#CN=C=[N-] [1-butyl-1-methylpyrrolidinium dicyanamide] | 473 ± 9 J/K/mol | 502 ± 10 J/K/mol | 521 ± 10 J/K/mol | 1.49968 ± 0.00063 | 1.49968 ± 0.00063 | 1.49681 ± 0.00063 | 1.49681 ± 0.00063 | 1.49392 ± 0.00064 | 1.49392 ± 0.00064 | 1836.9 ± 2.3 m/s | 1019.17 ± 1.1 kg/m3 | 1811.1 ± 2.3 m/s | 1013.53 ± 1.1 kg/m3 | 1781.9 ± 2.3 m/s | 1007.93 ± 1.1 kg/m3 | – | – | – | – |
| CCCC[N+]1(C)CCCC1.O=S(=O)([O-])C(F)(F)F [1-butyl-1-methylpyrrolidinium trifluoromethanesulfonate] | 424 ± 8 J/K/mol | 435 ± 9 J/K/mol | 441 ± 9 J/K/mol | 1.43557 ± 0.00052 | – | 1.43289 ± 0.00052 | – | 1.43018 ± 0.00052 | – | 1484.6 ± 1.4 m/s | 1260.33 ± 0.58 kg/m3 | 1460.1 ± 1.4 m/s | 1252.98 ± 0.57 kg/m3 | 1436.7 ± 1.4 m/s | 1245.78 ± 0.56 kg/m3 | – | – | – | – |
| CCCCn1cc[n+](C)c1.N#CN=C=[N-] [1-butyl-3-methylimidazolium dicyanamide] | 367 ± 7 J/K/mol | 376 ± 8 J/K/mol | 381 ± 8 J/K/mol | 1.51213 ± 0.00065 | 1.51213 ± 0.00065 | 1.50893 ± 0.00065 | 1.50893 ± 0.00065 | 1.50578 ± 0.00065 | 1.50578 ± 0.00065 | 1764.3 ± 2.3 m/s | 1066.58 ± 1.3 kg/m3 | 1738.1 ± 2.3 m/s | 1060.17 ± 1.2 kg/m3 | 1713.1 ± 2.3 m/s | 1053.83 ± 1.2 kg/m3 | – | – | – | – |
| CCCCn1cc[n+](C)c1.O=S(=O)([O-])C(F)(F)F [1-butyl-3-methylimidazolium trifluoromethanesulfonate] | – | – | – | 1.44032 ± 0.00053 | 1.44032 ± 0.00053 | 1.43755 ± 0.00053 | 1.43755 ± 0.00053 | 1.43475 ± 0.00053 | 1.43475 ± 0.00053 | 1414.3 ± 1.4 m/s | 1307.5 ± 0.63 kg/m3 | 1391.4 ± 1.4 m/s | 1299.55 ± 0.62 kg/m3 | 1369.1 ± 1.4 m/s | 1291.62 ± 0.61 kg/m3 | – | – | – | – |
| CCCC[n+]1cccc(C)c1.O=S(=O)([O-])C(F)(F)F [1-butyl-3-methylpyridinium trifluoromethanesulfonate] | 496 ± 10 J/K/mol | 520 ± 10 J/K/mol | 535 ± 11 J/K/mol | 1.46446 ± 0.00053 | 1.46446 ± 0.00053 | 1.46155 ± 0.00053 | 1.46155 ± 0.00053 | 1.45868 ± 0.00053 | 1.45868 ± 0.00053 | 1436.1 ± 1.4 m/s | 1287.07 ± 0.61 kg/m3 | 1412.3 ± 1.4 m/s | 1279.41 ± 0.6 kg/m3 | 1389.6 ± 1.4 m/s | 1271.8 ± 0.59 kg/m3 | – | – | – | – |
| CCCCCCn1cc[n+](C)c1.N#CN=C=[N-] [1-hexyl-3-methylimidazolium dicyanamide] | 510 ± 10 J/K/mol | 534 ± 11 J/K/mol | 548 ± 11 J/K/mol | 1.50729 ± 0.00079 | 1.50729 ± 0.00079 | 1.50415 ± 0.00079 | 1.50415 ± 0.00079 | 1.501 ± 0.00079 | 1.501 ± 0.00079 | 1713.4 ± 3.2 m/s | 1034.76 ± 2.6 kg/m3 | 1687.7 ± 3.2 m/s | 1028.56 ± 2.6 kg/m3 | 1662.7 ± 3.2 m/s | 1022.4 ± 2.5 kg/m3 | – | – | – | – |
| COS(=O)(=O)[O-].C[n+]1ccccc1 [1-methylpyridinium methylsulfate] | 288 ± 6 J/K/mol | 299 ± 6 J/K/mol | 305 ± 6 J/K/mol | 1.51603 ± 0.00052 | 1.51603 ± 0.00052 | 1.5134 ± 0.00052 | 1.5134 ± 0.00052 | 1.51077 ± 0.00052 | 1.51077 ± 0.00052 | 1901.1 ± 1.5 m/s | 1352.86 ± 0.69 kg/m3 | 1875.8 ± 1.5 m/s | 1346.12 ± 0.68 kg/m3 | 1852.4 ± 1.5 m/s | 1339.37 ± 0.67 kg/m3 | – | – | – | – |
| O [water] + CCCCCCn1cc[n+](C)c1.N#CN=C=[N-] | – | – | – | – | – | – | – | – | – | – | – | – | – | – | – | 1522.3 ± 1 m/s | 1.33349 ± 0.00041 | 1.33255 ± 0.00042 | 1.33131 ± 0.00042 |
| O [water] + CCCC[N+]1(C)CCCC1.N#CN=C=[N-] | – | – | – | – | – | – | – | – | – | – | – | – | – | – | – | 1522.3 ± 1 m/s | 1.33349 ± 0.00041 | 1.33255 ± 0.00042 | 1.33131 ± 0.00042 |
| O [water] + CCCC[N+]1(C)CCCC1.O=S(=O)([O-])C(F)(F)F | – | – | – | – | – | – | – | – | – | – | – | – | – | – | – | 1522.3 ± 1 m/s | 1.33349 ± 0.00041 | 1.33255 ± 0.00042 | 1.33131 ± 0.00042 |
| O [water] + CCCC[n+]1cccc(C)c1.O=S(=O)([O-])C(F)(F)F | – | – | – | – | – | – | – | – | – | – | – | – | – | – | – | 1522.3 ± 1 m/s | 1.33349 ± 0.00041 | 1.33255 ± 0.00042 | 1.33131 ± 0.00042 |
| O [water] + CCCCn1cc[n+](C)c1.N#CN=C=[N-] | – | – | – | – | – | – | – | – | – | – | – | – | – | – | – | 1522.3 ± 1 m/s | 1.33349 ± 0.00041 | 1.33255 ± 0.00042 | 1.33131 ± 0.00042 |
| O [water] + CCCCn1cc[n+](C)c1.O=S(=O)([O-])C(F)(F)F | – | – | – | – | – | – | – | – | – | – | – | – | – | – | – | 1522.3 ± 1 m/s | 1.33349 ± 0.00041 | 1.33255 ± 0.00042 | 1.33131 ± 0.00042 |
| O [water] + CCOS(=O)(=O)[O-].CCc1cccc[n+]1CC | – | – | – | – | – | – | – | – | – | – | – | – | – | – | – | 1522.3 ± 1 m/s | 1.33349 ± 0.00041 | 1.33255 ± 0.00042 | 1.33131 ± 0.00042 |
| O [water] + COS(=O)(=O)[O-].C[n+]1ccccc1 | – | – | – | – | – | – | – | – | – | – | – | – | – | – | – | 1522.3 ± 1 m/s | 1.33349 ± 0.00041 | 1.33255 ± 0.00042 | 1.33131 ± 0.00042 |
